System: HCV genotype 1a replicon
Test: HCV genotype 1a replicon assay (NS3 protease activity readout)
Assay type: cell-based, hepatitis C virus
Conditions: for Genotype 1a: HCV genotype 1a replicon; for EC50: Hepatitis C virus, read-out: Genotype 1a, HCV genotype 1a replicon
Outline: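 EC50 values came from a 4-parameter robust fit of fluorescence (ex 340, em 509 nm) produced by NS3-specific protease in lysates, assayed with 15 μM FRET substrate for 20 min at 37° C, after 48 or 72 hours of compound exposure (0.5% DMSO) of Huh7.5-derived APC89 genotype 1a replicon cells.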

SMILES	Genotype 1a	EC50
CNC(=O)N1CCC[C@@]1(C)C(=O)N1C[C@@H](C)N(c2ccc(C(=O)Nc3cc(OC(F)(F)F)c(-c4ccc(-c5c[nH]c([C@@H]6C[C@H](C)CN6C(=O)[C@@H](NC(=O)OC)C(C)C)n5)cc4)cc3Cl)cn2)C[C@@H]1C [Example 1-23]	D (D represents pEC50>10 (EC50<0.1 nM))	–
CNC(=O)N1CCC[C@@]1(C)C(=O)N1CCN(c2ccc(C(=O)Nc3cc(OC(F)(F)F)c(-c4ccc(-c5c[nH]c([C@@H]6C[C@H](C)CN6C(=O)[C@@H](NC(=O)OC)C(C)C)n5)cc4)cc3Cl)cn2)[C@H](C)C1 [Example 1-22]	D (D represents pEC50>10 (EC50<0.1 nM))	–
COC(=O)N[C@H](C(=O)N1C[C@@H](N(C)C)C[C@H]1c1nc(-c2ccc(-c3cc(Cl)c(NC(=O)c4ccc(N5CCN(C(=O)[C@H]6CC6(C)C)C[C@H]5C)nc4)cc3OC(F)(F)F)cc2)c[nH]1)C(C)C [Example 2-6]	D (D represents pEC50>10 (EC50<0.1 nM))	–
COC(=O)N[C@H](C(=O)N1C[C@@H](C)C[C@H]1c1nc(-c2ccc(-c3ccc(C(=O)Nc4ccc(N5C[C@H](C)N(C(=O)C6CC6(Cl)Cl)C[C@H]5C)nc4)cc3OC(F)(F)F)cc2)c[nH]1)C(C)C (some centres unmarked) [Example 4-23]	C (C represents pEC50 between and 9 and about 10, (EC50 between 1 nM and 0.1 nM))	–
CNC(=O)N1C[C@@H](C)N(c2ccc(C(=O)Nc3cc(OC(F)(F)F)c(-c4ccc(-c5c[nH]c([C@@H]6C[C@H](C)CN6C(=O)C(C)N(C)C(=O)OC)n5)cc4)cc3Cl)cn2)C[C@@H]1C (some centres unmarked) [Example 7-14]	–	< 0.1 nM
COC(=O)N[C@H](C(=O)N1C[C@@H](C)C[C@H]1c1nc(-c2ccc(-c3cc(Cl)c(NC(=O)c4ccc(N5CCN(C(=O)[C@H]6CCCN6C(C)=O)C[C@H]5C)nc4)cc3OC(F)(F)F)cc2)c[nH]1)C(C)C [Example 1-47]	D (D represents pEC50>10 (EC50<0.1 nM))	–
CNC(=O)N1C[C@@H](C)N(c2ccc(C(=O)Nc3cc(OC(F)(F)F)c(-c4ccc(-c5c[nH]c([C@@H]6C[C@H](C)CN6C(=O)[C@H](NC(=O)OC)C(C)(C)C)n5)cc4)cc3Cl)cn2)C[C@@H]1C [Example 7-2]	A (A represents a pEC50 value between 6 and 8 (EC50 between 1 μM and 10 nM))	–
COC(=O)N[C@H](C(=O)N1C[C@@H](C)C[C@H]1c1nc(-c2ccc(-c3ccc(NC(=O)c4ccc(N5CCN(C(=O)N(C)C)C[C@H]5C)nc4)cc3C(F)(F)F)cc2)c[nH]1)C(C)C [Example 1-64]	C (C represents pEC50 between and 9 and about 10, (EC50 between 1 nM and 0.1 nM))	–
COC(=O)N[C@H](C(=O)N1C[C@@H](C)C[C@H]1c1nc(-c2ccc(-c3cc(Cl)c(NC(=O)c4ccc(N5CCN(C(=O)C6CCO6)C[C@H]5C)nc4)cc3OC(F)(F)F)cc2)c[nH]1)C(C)C (some centres unmarked) [Example 12-49]	–	< 0.1 nM
COC(=O)N[C@H](C(=O)N1CC(C)(C)C[C@H]1c1nc(-c2ccc(-c3ccc(C(=O)Nc4ccc(N5CCN(C(=O)C(C)(C)C)C[C@H]5C)nc4)cc3OC(F)(F)F)cc2)c[nH]1)C(C)C [Example 6-23]	–	1 to 10 nM
COC(=O)NC(C(=O)N1CC(OC)CC1c1nc(-c2ccc(-c3ccc(NC(=O)c4ccc(N5CCN(C(=O)C(C)(C)CO)CC5C)nc4)cc3OC(F)(F)F)cc2)c[nH]1)C(C)OC (centres unmarked) [Example 16-16]	D (D represents pEC50>10 (EC50<0.1 nM))	–
COC(=O)NCC(C)(C)C(=O)N1CCN(c2ccc(C(=O)Nc3cc(OC(F)(F)F)c(-c4ccc(-c5c[nH]c([C@@H]6C[C@H](C)CN6C(=O)[C@@H](NC(=O)OC)C(C)C)n5)cc4)cc3Cl)cn2)[C@H](C)C1 [Example 12-39]	–	< 0.1 nM
COC(=O)N[C@H](C(=O)N1C[C@@H](C)C[C@H]1c1nc(-c2ccc(-c3ccc(C(=O)Nc4ccc(N5C[C@H](C)N(C(=O)[C@@H](C)NC(C)=O)C[C@H]5C)nc4)cc3OC(F)(F)F)cc2)c[nH]1)C(C)C [Example 4-28]	D (D represents pEC50>10 (EC50<0.1 nM))	–
COC(=O)N[C@H](C(=O)N1C[C@@H](C)C[C@H]1c1nc(-c2ccc(-c3cc(Cl)c(NC(=O)c4ccc(N5CCN(C(=O)C6CCOCC6)C[C@H]5C)nc4)cc3OC(F)(F)F)cc2)c[nH]1)C(C)C [Example 12-27]	–	0.1 to 1 nM
COC(=O)N[C@H](C(=O)N1C[C@@H](N(C)C(C)C)C[C@H]1c1nc(-c2ccc(-c3cc(Cl)c(NC(=O)c4ccc(N5CCN(C(=O)C(C)(C)C)C[C@H]5C)nc4)cc3OC(F)(F)F)cc2)c[nH]1)C(C)C [Example 15-7]	–	< 0.1 nM
COC(=O)N[C@H](C(=O)N1C[C@@H](C)C[C@H]1c1nc(-c2ccc(-c3cc(Cl)c(NC(=O)c4ccc(N5CCN(C(=O)C6(N)CC6(C)C)C[C@H]5C)nc4)cc3OC(F)(F)F)cc2)c[nH]1)C(C)C (some centres unmarked) [Example 12-9]	–	< 0.1 nM
COC(=O)N[C@H](C(=O)N1C[C@@H](C)C[C@H]1c1nc(-c2ccc(-c3cc(Cl)c(NC(=O)c4ccc(N5CCN(C(C)=O)C[C@H]5C)nc4)cc3OC(F)(F)F)cc2)c[nH]1)C(C)C [Example 1-66]	C (C represents pEC50 between and 9 and about 10, (EC50 between 1 nM and 0.1 nM))	–
COC(=O)NC(C(=O)N1CC(OC)CC1c1nc(-c2ccc(-c3cc(Cl)c(NC(=O)c4ccc(N5CCN(C(=O)C(C)(C)CO)CC5C)nc4)cc3OC(F)(F)F)cc2)c[nH]1)C(C)OC (centres unmarked) [Example 16-8]	D (D represents pEC50>10 (EC50<0.1 nM))	–

SMILES	Genotype 1a	EC50
COC(=O)N[C@H](C(=O)N1CC2(C[C@H]1c1nc(-c3ccc(-c4cc(Cl)c(NC(=O)c5ccc(N6CCN(C(=O)C(C)(C)C)C[C@H]6C)nc5)cc4OC(F)(F)F)cc3)c[nH]1)OCCO2)C(C)C [Example 5-11]	–	< 0.1 nM
COC(=O)N[C@H](C(=O)N1C[C@@H]([S+](C)[O-])C[C@H]1c1nc(-c2ccc(-c3ccc(C(=O)Nc4ccc(N5CCN(C(=O)C(C)(C)C)C[C@H]5C)nc4)cc3OC(F)(F)F)cc2)c[nH]1)C(C)C (some centres unmarked) [Example 6-19]	–	0.1 to 1 nM
COC(=O)N[C@H](C(=O)N1C[C@@H](C)C[C@H]1c1nc(-c2ccc(-c3cc(F)c(NC(=O)c4ccc(N5CCN(C(=O)C6(C)CC6)C[C@H]5C)nc4)cc3OC(F)(F)F)cc2)c[nH]1)C(C)C [Example 1-79]	C (C represents pEC50 between and 9 and about 10, (EC50 between 1 nM and 0.1 nM))	–
[2H]C([2H])([2H])C1(C([2H])([2H])[2H])CC1C(=O)N1CCN(c2ccc(NC(=O)c3ccc(-c4ccc(-c5nc([C@@H]6C[C@H](N(C)C)CN6C(=O)[C@@H](NC(=O)OC)C(C)C)[nH]c5Cl)cc4)c(OC(F)(F)F)c3)cn2)[C@H](C)C1 (some centres unmarked) [Example 6-17]	–	< 0.1 nM
CC[C@H](C)C(=O)N1CCN(c2ccc(C(=O)Nc3cc(OC(F)(F)F)c(-c4ccc(-c5c[nH]c([C@@H]6C[C@H](C)CN6C(=O)[C@@H](NC(=O)OC)C(C)C)n5)cc4)cc3Cl)cn2)[C@H](C)C1 [Example 1-69]	D (D represents pEC50>10 (EC50<0.1 nM))	–
COC(=O)N[C@H](C(=O)N1C[C@@H](OC)C[C@H]1c1nc(-c2ccc(-c3cc(Cl)c(NC(=O)c4ccc(N5CCN(C(=O)C(C)(C)C)C[C@H]5C)nc4)cc3C(F)(F)F)cc2)c[nH]1)C1CCCCC1 [Example 19-17]	C (C represents pEC50 between and 9 and about 10, (EC50 between 1 nM and 0.1 nM))	–
CNC(=O)N1CCN(c2ccc(C(=O)Nc3cc(C(F)(F)F)c(-c4ccc(-c5c[nH]c([C@@H]6CC(C)(C)CN6C(=O)[C@@H](NC(=O)OC)C(C)C)n5)cc4)cc3F)cn2)[C@H](C)C1 [Example 3-4]	–	0.1 to 1 nM
COC(=O)N[C@H](C(=O)N1C[C@@H](C)C[C@H]1c1nc(-c2ccc(-c3cc(Cl)c(NC(=O)c4ccc(N5CCN(C(=O)C(C)(C)CO)C[C@H]5C)nc4)cc3C(F)(F)F)cc2)c[nH]1)C1CCOCC1 [Example 19-4]	D (D represents pEC50>10 (EC50<0.1 nM))	–
COC(=O)N[C@H](C(=O)N1C[C@@H](C)C[C@H]1c1nc(-c2ccc(-c3ccc(C(=O)Nc4ccc(N5CCN(C(=O)C(C)(C)C)C[C@H]5C)nc4)cc3OC(F)(F)F)cc2)c[nH]1)C(C)C [Example 4-36]	C (C represents pEC50 between and 9 and about 10, (EC50 between 1 nM and 0.1 nM))	–
COC(=O)N[C@H](C(=O)N1[C@@H]2C[C@@H]2C[C@H]1c1nc(-c2ccc(-c3ccc(C(=O)Nc4ccc(N5CCN(C(=O)C(C)(C)C)C[C@H]5C)nc4)cc3OC(F)(F)F)cc2)c(Cl)[nH]1)C(C)C [Example 9-1]	–	0.1 to 1 nM
COC(=O)N[C@H](C(=O)N1C[C@@H](C)C[C@H]1c1nc(-c2ccc(-c3ccc(C(=O)Nc4ccc(N5C[C@H](C)N(C(=O)C(C)(C)C)C[C@H]5C)nc4)cc3OC(F)(F)F)cc2)c[nH]1)C(C)C [Example 4-15]	D (D represents pEC50>10 (EC50<0.1 nM))	–
COC(=O)NC(C(=O)N1C[C@@H](C)C[C@H]1c1nc(-c2ccc(-c3c(F)cc(NC(=O)c4ccc(N5CCN(C(=O)C(C)(C)C)C[C@H]5C)nc4)cc3F)cc2)c[nH]1)C1CCCCC1 (some centres unmarked) [Example 21-1]	A (A represents a pEC50 value between 6 and 8 (EC50 between 1 μM and 10 nM))	–
COC(=O)N[C@H](C(=O)N1C[C@@H](OC)C[C@H]1c1nc(-c2ccc(-c3cc(F)c(NC(=O)c4ccc(N5CCN(C(=O)C(C)(C)C)[C@@H](CO)C5)nc4)cc3OC(F)(F)F)cc2)c[nH]1)C1CCOCC1 [Example 5-16]	–	< 0.1 nM
COC(=O)N[C@@H](CSC)C(=O)N1C[C@@H](C)C[C@H]1c1nc(-c2ccc(-c3cc(Cl)c(NC(=O)c4ccc(N5CCN(C(=O)C(C)(C)C)C[C@H]5C)nc4)cc3OC(F)(F)F)cc2)c[nH]1 [Example 13-7]	–	< 0.1 nM
COC(=O)N[C@H](C(=O)N1C[C@@H](C)C[C@H]1c1nc(-c2ccc(-c3cc(Cl)c(NC(=O)c4ccc(N5CCN(C(=O)C6CCC6(C)C)C[C@H]5C)nc4)cc3OC(F)(F)F)cc2)c[nH]1)C(C)C (some centres unmarked) [Example 12-21]	–	< 0.1 nM
COC(=O)N[C@H](C(=O)N1C[C@@H](OC)C[C@H]1c1nc(-c2ccc(-c3cc(F)c(NC(=O)c4ccc(N5CCN(C(=O)[C@H]6CC6(C)C)C[C@H]5C)nc4)cc3OC(F)(F)F)cc2)c[nH]1)C(C)C [Example 27-4]	D (D represents pEC50>10 (EC50<0.1 nM))	–
COC(=O)N[C@H](C(=O)N1C[C@@H](C)C[C@H]1c1nc(-c2ccc(-c3cc(Cl)c(NC(=O)c4ccc(N5CCN(C(=O)C(C)(C)CO)C(CO)C5)nc4)cc3OC(F)(F)F)cc2)c[nH]1)C(C)C (some centres unmarked) [Example 14-3]	C (C represents pEC50 between and 9 and about 10, (EC50 between 1 nM and 0.1 nM))	–

— US9212168B2 (priority 2011, dated 2015)
